Measured values as given in patent publication US10125126B2, “N-cycloalkyl-N-[(heterocyclylphenyl)methylene]-(thio)carboxamide derivatives” (BAYER CROPSCIENCE AG, priority 2012, dated 2018).

What was measured:
Septoria tritici = assay: In vivo preventive test on Septoria tritici (wheat); settings: wheat plants, 24 days after contamination
Procedure: In Vivo Preventive Test on Septoria tritici (Wheat) […] Wheat plants (“Scipion” variety), sown in starter cups on a 50/50 peat soil pozzolana substrate and grown at 22° C., are treated at the 1 leaf stage (10 cm height) by spraying with the active ingredient prepared as described above. Plants, used as controls, are treated with the mixture of acetone/tween/DMSO/water not containing the active material. After 24 hours, the plants are contaminated by spraying the leaves with an aqueous suspension of cryopreserved Septoria tritici spores (500 000 spores per mL). The contaminated wheat plants are incubated for 72 hours at 18° C. and at 100% relative humidity, and then for 21 days at 90% relative humidity. Grading (% of efficacy) is carried out 24 days after the contamination, in comparison with the control plants.

[1] = log P by HPLC on a reversed-phase column (C 18), EEC Directive 79/831 Annex V.A8; type: physicochemical; settings: 0.1% aqueous formic acid and acetonitrile; for chromatographic logP: reversed-phase HPLC column (C 18), read-out: logP
Procedure: In table 1, the log P values were determined in accordance with EEC Directive 79/831 Annex V.A8 by HPLC (High Performance Liquid Chromatography) on a reversed-phase column (C 18), using the method described below: Temperature: 40° C.; Mobile phases: 0.1% aqueous formic acid and acetonitrile; linear gradient from 10% acetonitrile to 90% acetonitrile. Calibration was carried out using unbranched alkan-2-ones (comprising 3 to 16 carbon atoms) with known log P values (determination of the log P values by the retention times using linear interpolation between two successive alkanones). lambda-max-values were determined using UV-spectra from 200 nm to 400 nm and the peak values of the chromatographic signals.

Sphaerotheca fuliginea = assay: In vivo preventive test on Sphaerotheca fuliginea (powdery mildew on cucurbits); settings: gherkin plants, 12 days after contamination; for Efficacy / pest or weed control at 500 ppm: 500 ppm of active ingredient
Procedure: In Vivo Preventive Test on Sphaerotheca fuliginea (Powdery Mildew on Cucurbits) […] Gherkin plants (“Vert petit de Paris” variety), sown in starter cups on a 50/50 peat soil-pozzolana substrate and grown at 24° C., are treated at the Z11 cotyledon stage by spraying with the active ingredient prepared as described above. Plants, used as controls, are treated with the mixture of acetone/tween/DMSO/water not containing the active material. After 24 hours, the plants are contaminated by spraying the cotyledons with an aqueous suspension of Sphaerotheca fuliginea spores (100 000 spores per mL). The spores are collected from infected plants. […] Grading (% of efficacy) is carried out 12 days after the contamination, in comparison with the control plants.

Uromyces appendiculatus = assay: In vivo preventive test on Uromyces appendiculatus (bean rust); settings: 500 ppm of active ingredient; bean plants; 11 days after contamination
Procedure: In Vivo Preventive Test on Uromyces appendiculatus (Bean Rust) […] Bean plants (“Saxa” variety), sown in starter cups on a 50/50 peat soil pozzolana substrate and grown at 24° C., are treated at the 2 leaf stage (9 cm height) by spraying with the active ingredient prepared as described above. Plants, used as controls, are treated with the mixture of acetone/tween/DMSO/water not containing the active material. After 24 hours, the plants are contaminated by spraying the leaves with an aqueous suspension of Uromyces appendiculatus spores (150 000 spores per mL). The spores are collected from infected plants and are suspended in water containing 2.5 mL/L of Tween 80 at 10%. […] Grading (% of efficacy) is carried out 11 days after the contamination, in comparison with the control plants.

Puccinia recondita = assay: In vivo preventive test on Puccinia recondita (brown rust on wheat); settings: wheat plants, 12 days after contamination
Procedure: In Vivo Preventive Test on Puccinia recondita (Brown Rust on Wheat) […] Wheat plants (“Scipion” variety), sown in starter cups on a 50/50 peat soil pozzolana substrate and grown at 22° C., are treated at the 1 leaf stage (10 cm height) by spraying with the active ingredient prepared as described above. Plants, used as controls, are treated with the mixture of acetone/tween/DMSO/water not containing the active material. After 24 hours, the plants are contaminated by spraying the leaves with an aqueous suspension of Puccinia recondita spores (100 000 spores per mL). The spores are collected from an infected plant and are suspended in water containing 2.5 mL/L of Tween 80 at 10%. […] Grading (% of efficacy) is carried out 12 days after the contamination, in comparison with the control plants.

[2] = HPLC on reversed-phase column (C 18), 40° C., linear gradient 10% to 90% acetonitrile
[3] = Podosphaera fuliginea, 288 h, read-out: Efficacy

| logP [1, 2] | Compound | other results |
| --- | --- | --- |
| 2.98 | Cc1nn(C)c(C)c1-c1ccc(Cl)cc1CN(C(=O)c1c(C(F)F)nn(C)c1F)C1CC1 [I.113] | Efficacy (Septoria tritici; 500 ppm of active ingredient): 70%; Efficacy (Sphaerotheca fuliginea): 98% |
| 2.66 | Cc1nn(C)c(C)c1-c1ccc(F)cc1CN(C(=O)c1c(C(F)F)nn(C)c1F)C1CC1 [I.112] | Efficacy (Septoria tritici; 500 ppm of active ingredient): 100%; Efficacy (Puccinia recondita; 500 ppm of active ingredient): 83%; Efficacy (Sphaerotheca fuliginea): 100% |
| 4.49 | Cn1nc(C(F)F)c(C(=S)N(Cc2ccccc2-c2cccs2)C2CC2)c1Cl [I.81] |  |
| 4.83 | Cc1ccc(-c2csc3ccccc23)c(CN(C(=O)c2c(C(F)F)nn(C)c2Cl)C2CC2)c1 [I.162] |  |
| 4.72 | Cc1cc(C(=O)N(Cc2cc(-c3cccs3)ccc2Cl)C2CC2)c(C)o1 [I.99] |  |
| 3.89 | Cc1ccc(-c2coc3ccccc23)c(CN(C(=O)c2cn(C)nc2C(F)F)C2CC2)c1 [I.135] |  |
| 4.29 | Cn1nc(C(F)F)c(C(=O)N(Cc2cc(-c3cccs3)ccc2Cl)C2CC2)c1Cl [I.85] |  |
| 4.15 | Cc1ccc(-c2csc3ccccc23)c(CN(C(=O)c2cn(C)nc2C(F)F)C2CC2)c1 [I.161] |  |
| 3.99 | COc1ccsc1-c1ccc(C)cc1CN(C(=O)c1c(C(F)F)nn(C)c1Cl)C1CC1 [I.126] |  |
| 3.92 | CC1CC1N(Cc1ccccc1-c1ccsc1)C(=O)c1c(C(F)F)nn(C)c1Cl (stereo not drawn) [I.88] | Efficacy (Septoria tritici; 500 ppm of active ingredient): 79%; Efficacy (Puccinia recondita; 500 ppm of active ingredient): 94% |
| 4.49 | Cc1ccc(-c2coc3ccccc23)c(CN(C(=O)c2c(C(F)F)nn(C)c2Cl)C2CC2)c1 [I.133] |  |
| 3.68 | CC(c1ccccc1Cc1ccc(Cl)cn1)N(C(=O)c1c(C(F)F)nn(C)c1F)C1CC1 (stereo not drawn) [I.171] |  |
| 4.59 | Cc1cc(C(=O)N(Cc2cc(-c3ccsc3)ccc2Cl)C2CC2)c(C)o1 [I.98] |  |
| 5.19 | Cc1ccc(-c2csc3ccccc23)c(CN(C(=O)c2c(C(F)F)nn(C)c2Cl)C2CC2C)c1 (stereo not drawn) [I.164] |  |
| 5.54 | Cc1cc(C(=O)N(Cc2cc(-c3ccc(Cl)s3)ccc2Cl)C2CC2)c(C)o1 [I.152] |  |
| 2.80 | Cc1ccc(-c2c(C)nn(C)c2C)c(CN(C(=O)c2c(C(F)F)nn(C)c2Cl)C2CC2)c1 [I.117] |  |
| 4.91 | O=C(c1ccsc1I)N(Cc1cc(-c2cccs2)ccc1Cl)C1CC1 [I.91] |  |

The remaining lines, values behind:

| Compound | logP [1, 2] | other results |
| --- | --- | --- |
| Cn1nc(C(F)F)c(C(=S)N(Cc2cc(Cl)ccc2-c2cccs2)C2CC2)c1Cl [I.79] | 4.92 | Efficacy (Septoria tritici; 500 ppm of active ingredient): 75%; Efficacy (Uromyces appendiculatus): 100% |
| Cc1ccc(-c2ccoc2)c(CN(C(=O)c2c(C(F)F)nn(C)c2F)C2CC2)c1 [I.39] | 3.55 | Efficacy (Septoria tritici; 100 ppm of active ingredient): 80%; Efficacy (Puccinia recondita; 100 ppm of active ingredient): 88% |
| Cn1nc(C(F)F)c(C(=O)N(Cc2cc(Cl)ccc2-c2cccs2)C2CC2)c1Cl [I.77] | 4.29 | Efficacy (Uromyces appendiculatus): 84% |
| Cn1nc(C(F)F)c(C(=O)N(Cc2ccccc2-c2cccc(Cl)n2)C2CC2)c1F [CMP3, N-[2-(6-chloropyridin-2-yl)benzyl]-N-cyclopropyl-3-(difluoromethyl)-5-fluoro-1-methyl-1H-pyrazole-4-carboxamide, reference compound] |  | pest or weed control at 500 ppm (Sphaerotheca fuliginea; [3]): < 40% |
| Cn1cc(C(=O)N(Cc2ccc(-c3cccnc3)cc2Cl)C2CC2)c(C(F)F)n1 [CMP1, N-[2-chloro-4-(pyridin-3-yl)benzyl]-N-cyclopropyl-3-(difluoromethyl)-1-methyl-1H-pyrazole-4-carboxamide, reference compound] |  | pest or weed control at 100 ppm (Sphaerotheca fuliginea; Podosphaera fuliginea, 288 h, 100 ppm of active ingredient, read-out: Efficacy): 0% |
| Cc1ccc(-c2cnn(C)c2)c(CN(C(=O)c2c(C(F)F)nn(C)c2F)C2CC2)c1 [I.58] | 2.63 | Efficacy (Septoria tritici; 100 ppm of active ingredient): 97% |
| Cc1ccc(-c2ccn(C)c2)c(CN(C(=O)c2cn(C)nc2C(F)F)C2CC2)c1 [I.52] | 3.19 |  |
| CC(C)c1ccc(-c2cnn(C)c2)cc1CN(C(=O)c1c(C(F)F)nn(C)c1F)C1CC1 [I.65] | 3.13 |  |
| Cn1nc(C(F)F)c(C(=O)N(Cc2cc(Cl)ccc2C23CCCCC2O3)C2CC2)c1F (stereo not drawn) [I.23] | 3.99 |  |
| Cc1ccc(-c2ccn(C)c2)c(CN(C(=O)c2c(C(F)F)nn(C)c2Cl)C2CC2)c1 [I.53] | 3.69 |  |
| CC1OCC1c1ccccc1CN(C(=O)c1c(C(F)F)nn(C)c1Cl)C1CC1 (stereo not drawn) [I.16] | 2.08 | Efficacy (Septoria tritici; 500 ppm of active ingredient): 90% |
| Cn1nc(C(F)F)c(C(=O)N(Cc2ccccc2C2(C)OCCO2)C2CC2)c1F [I.20] | 2.94 |  |
| CC(C)c1ccc(Cl)cc1C=NO [1-(5-chloro-2-isopropylphenyl)-N-hydroxymethanimine] |  | logP ([1]; HPLC, C 18, 40° C.): 3.17; chromatographic logP ([1]; HPLC, C 18, 40° C.): 2.9 |
| Cn1nc(C(F)F)c(C(=O)N(Cc2ccccc2-c2ccco2)C2CC2)c1Cl [I.30] | 3.46 |  |
| Clc1ccc(-c2ccsc2)c(CNC2CC2)c1 [IIa.5, N-[5-chloro-2-(3-thienyl)benzyl]cyclopropanamine] |  | chromatographic logP ([1]; HPLC, C 18, 40° C.): 1.12 |
| Cn1nc(C(F)F)c(C(=O)N(Cc2ccccc2-c2cccc(Cl)n2)C2CC2)c1Cl [CMP5, 5-chloro-N-[2-(6-chloropyridin-2-yl)benzyl]-N-cyclopropyl-3-(difluoromethyl)-1-methyl-1H-pyrazole-4-carboxamide, reference compound] |  | pest or weed control at 500 ppm (Sphaerotheca fuliginea; [3]): < 40% |
| CC(C)c1ccc(Cl)cc1CN [1-(5-chloro-2-isopropylphenyl)methanamine] |  | chromatographic logP ([1]; HPLC, C 18, 40° C.): 1.2 |
| N-cyclopropyl-3-(difluoromethyl)-5-fluoro-1-methyl-N-[2-(3-methyloxetan-3-yl)benzyl]-1H-pyrazole-4-carboxamide [I.15] | 1.94 | logP ([1]; HPLC, C 18, 40° C.): 1.94 |
| Cc1ccc(-c2ccoc2)c(CN(C(=O)c2cn(C)nc2C(F)F)C2CC2)c1 [I.38] | 3.19 |  |
| c1ccc(-c2ccsc2)c(CNC2CC2)c1 [IIa.3, N-[2-(3-thienyl)benzyl]cyclopropanamine] |  | chromatographic logP ([1]; HPLC, C 18, 40° C.): 1.34 |
| Cc1ccc(-c2cnn(C)c2)c(CN(C(=O)c2cn(C)nc2C(F)F)[C@@H]2C[C@H]2C)c1 (relative stereo) [I.62] | 2.66 |  |
| Cn1cc(C(=O)N(Cc2ccccc2-c2cccc(Cl)n2)C2CC2)c(C(F)F)n1 [CMP4, N-[2-(6-chloropyridin-2-yl)benzyl]-N-cyclopropyl-3-(difluoromethyl)-1-methyl-1H-pyrazole-4-carboxamide, reference compound] |  | pest or weed control at 500 ppm (Sphaerotheca fuliginea; [3]): < 40% |
| Cn1nc(C(F)F)c(C(=O)N(Cc2ccccc2C23CCCCC2O3)C2CC2)c1F (stereo not drawn) [I.24] | 3.48 |  |
| CC(NC1CC1)c1ccccc1-c1ccsc1 (stereo not drawn) [IIa.4, N-{1-[2-(3-thienyl)phenyl]ethyl}cyclopropanamine] |  | chromatographic logP ([1]; HPLC, C 18, 40° C.): 1.42 |
| Cn1nc(C(F)F)c(C(=O)N(Cc2cc(Cl)ccc2C23CCCC2O3)C2CC2)c1F (stereo not drawn) [I.18] | 3.60 |  |
| Clc1ccc(-c2ccco2)cc1CNC1CC1 [IIb.1, N-[2-chloro-5-(2-furyl)benzyl]cyclopropanamine] |  | chromatographic logP ([1]; HPLC, C 18, 40° C.): 1.08 |
| Cn1nc(C(F)F)c(C(=O)N(Cc2c(C3(C)CO3)ccc(Cl)c2F)C2CC2)c1F (stereo not drawn) [I.13] | 3.29 |  |
